Assay results published in patent US20230373985A1 (Origenis Gmbh, priority 2020, published 2023).

Legend:
[1] = molecular target: T1, wt human LRRK2, catalytic site (Homo sapiens, UniProt Q5S007); experiment: TR-FRET LanthaScreen Eu Kinase Binding Assay, LRRK2 wt; conditions: one range stated for wt and G2019, read-out: IC50, Activity Toward LRRK2(Wt)
T1 construct: 5 nM wt human LRRK2, catalytic site; purchased ThermoFisher
How it was run: (§1)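 Kinase Buffer A holding, as final levels, 8 nM full-length NUAK1, 2 nM Eu-anti-His antibody and 5 nM Tracer 236, or 5 nM LRRK2 catalytic site (wt or G2019S), 2 nM Eu-anti-GST and 10 nM Tracer 236. Compound added, then 1 h at room temperature before TR-FRET ratio readout.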

[2] = molecular target: T2, wt human TYK2, catalytic site (Homo sapiens, UniProt P29597); experiment: HTRF KinEASE assay, TYK2; assay type: biochemical; conditions: 1 μM ATP; read-out: IC50, Activity Toward TYK2
T2 construct: wt human TYK2, catalytic site; purchased SignalChem
T2 sequence (P29597 897-1176 limits assumed): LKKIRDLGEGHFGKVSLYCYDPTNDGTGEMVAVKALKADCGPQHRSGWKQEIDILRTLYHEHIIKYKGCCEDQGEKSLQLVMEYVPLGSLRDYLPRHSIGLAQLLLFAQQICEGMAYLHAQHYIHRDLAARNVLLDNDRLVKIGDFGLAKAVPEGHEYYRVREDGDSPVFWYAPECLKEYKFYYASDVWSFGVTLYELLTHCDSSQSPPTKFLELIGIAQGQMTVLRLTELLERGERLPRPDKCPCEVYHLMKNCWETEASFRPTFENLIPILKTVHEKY
How it was run: (§2)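 Kinase reaction run at room temperature for at least 30 min: 2 nM TYK2 with 1 μM ATP, or 1 nM JAK2 with 100 μM ATP, each with 1 μM biotin-TK substrate. Phosphorylation detected by HTRF (60 min antibody/XL665) and evaluated from emission ratios.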

[3] = molecular target: T3, G2019S human LRRK2, catalytic site (Homo sapiens, UniProt Q5S007, G2019S); experiment: TR-FRET LanthaScreen Eu Kinase Binding Assay, LRRK2 G2019S; conditions: LRRK2(G2019); one range stated for wt and G2019; read-out: IC50, Activity Toward LRRK2(G2019)
T3 construct: G2019S human LRRK2, catalytic site; purchased ThermoFisher
T3 sequence (Q5S007 970-2527 G2019S limits assumed): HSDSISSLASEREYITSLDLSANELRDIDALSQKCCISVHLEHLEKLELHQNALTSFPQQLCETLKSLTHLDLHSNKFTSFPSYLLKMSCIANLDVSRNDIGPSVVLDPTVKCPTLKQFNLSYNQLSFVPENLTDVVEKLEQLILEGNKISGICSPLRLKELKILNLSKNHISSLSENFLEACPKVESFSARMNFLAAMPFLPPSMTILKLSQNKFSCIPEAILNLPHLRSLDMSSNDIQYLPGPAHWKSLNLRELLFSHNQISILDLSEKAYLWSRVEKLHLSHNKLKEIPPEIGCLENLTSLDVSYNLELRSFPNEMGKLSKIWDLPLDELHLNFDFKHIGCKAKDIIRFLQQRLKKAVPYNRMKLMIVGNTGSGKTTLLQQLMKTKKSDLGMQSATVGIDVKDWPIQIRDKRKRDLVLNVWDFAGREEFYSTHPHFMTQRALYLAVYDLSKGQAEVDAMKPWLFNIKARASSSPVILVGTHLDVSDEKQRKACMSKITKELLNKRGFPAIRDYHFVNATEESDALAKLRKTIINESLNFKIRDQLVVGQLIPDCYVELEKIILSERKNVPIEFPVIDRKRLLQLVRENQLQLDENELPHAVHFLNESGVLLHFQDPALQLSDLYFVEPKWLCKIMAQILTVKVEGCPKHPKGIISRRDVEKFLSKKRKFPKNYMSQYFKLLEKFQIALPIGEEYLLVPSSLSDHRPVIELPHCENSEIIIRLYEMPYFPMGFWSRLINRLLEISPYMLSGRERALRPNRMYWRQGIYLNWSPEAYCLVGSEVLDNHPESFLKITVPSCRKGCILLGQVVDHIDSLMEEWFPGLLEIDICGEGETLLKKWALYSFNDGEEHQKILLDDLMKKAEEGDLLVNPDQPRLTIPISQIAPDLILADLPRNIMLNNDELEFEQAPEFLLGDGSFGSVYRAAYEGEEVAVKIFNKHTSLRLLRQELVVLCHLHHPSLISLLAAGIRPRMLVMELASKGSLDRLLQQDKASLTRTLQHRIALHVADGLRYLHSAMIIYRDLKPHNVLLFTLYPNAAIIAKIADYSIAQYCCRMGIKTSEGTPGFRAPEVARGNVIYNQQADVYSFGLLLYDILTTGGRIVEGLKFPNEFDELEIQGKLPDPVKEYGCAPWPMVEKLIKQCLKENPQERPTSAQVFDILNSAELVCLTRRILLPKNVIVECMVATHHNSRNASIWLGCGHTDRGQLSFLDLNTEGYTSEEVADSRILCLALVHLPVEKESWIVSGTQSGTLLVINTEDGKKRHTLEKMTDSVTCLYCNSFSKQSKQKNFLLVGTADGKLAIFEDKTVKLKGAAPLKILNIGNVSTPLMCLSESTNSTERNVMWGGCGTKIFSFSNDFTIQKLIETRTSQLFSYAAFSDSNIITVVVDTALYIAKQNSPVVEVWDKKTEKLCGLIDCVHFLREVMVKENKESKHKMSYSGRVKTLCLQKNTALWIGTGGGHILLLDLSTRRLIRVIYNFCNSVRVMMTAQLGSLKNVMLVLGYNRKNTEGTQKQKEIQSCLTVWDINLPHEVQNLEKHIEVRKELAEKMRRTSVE
How it was run: as §1

[4] = molecular target: T4, wt human JAK1, catalytic site (Homo sapiens, UniProt P23458); experiment: HTRF KinEASE assay, JAK1; assay type: biochemical; conditions: 2.5 μM ATP; read-out: IC50, Activity Toward JAK1
T4 construct: wt human JAK1, catalytic site; purchased ThermoFisher
T4 sequence (P23458 875-1153 limits assumed): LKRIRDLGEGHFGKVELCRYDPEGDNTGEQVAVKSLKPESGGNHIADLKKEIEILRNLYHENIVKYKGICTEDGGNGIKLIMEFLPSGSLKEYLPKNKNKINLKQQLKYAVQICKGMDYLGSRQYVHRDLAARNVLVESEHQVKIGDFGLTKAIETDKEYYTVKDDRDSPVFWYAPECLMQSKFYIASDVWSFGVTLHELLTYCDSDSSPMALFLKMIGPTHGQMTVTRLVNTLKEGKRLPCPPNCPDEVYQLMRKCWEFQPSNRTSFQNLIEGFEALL
How it was run: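 Compounds in DMSO dilution were mixed with kinase, biotin-TK substrate and ATP and reacted for ≥30 min at room temperature. Detection reagents (antibody, streptavidin-XL665) were read 60 min later as HTRF, with emission ratios analysed per KinEASE protocol.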

[5] = molecular target: T5, wt human JAK2, catalytic site (Homo sapiens, UniProt O60674); experiment: HTRF KinEASE assay, JAK2; assay type: biochemical; conditions: assay format not given (Z'-LYTE or HTRF KinEASE); read-out: IC50, Activity Toward JAK2
T5 construct: wt human JAK2, catalytic site; purchased SignalChem
T5 sequence (O60674 849-1124 limits assumed): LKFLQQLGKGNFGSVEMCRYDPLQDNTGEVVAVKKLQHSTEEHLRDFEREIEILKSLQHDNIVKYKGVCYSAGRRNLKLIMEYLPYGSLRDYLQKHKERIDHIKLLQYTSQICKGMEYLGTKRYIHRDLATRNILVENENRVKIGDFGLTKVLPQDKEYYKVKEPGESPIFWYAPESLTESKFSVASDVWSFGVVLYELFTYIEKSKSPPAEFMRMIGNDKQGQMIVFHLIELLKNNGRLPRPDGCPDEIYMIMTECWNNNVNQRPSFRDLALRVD
How it was run: as §2

[6] = molecular target: T6, wt human NUAK1, full length (Homo sapiens, UniProt O60285); experiment: TR-FRET LanthaScreen Eu Kinase Binding Assay, NUAK1; conditions: read-out: IC50, Activity Toward NUAK1
T6 construct: 8 nM wt human NUAK1, full length (ThermoFisher/USA); purchased ThermoFisher
T6 sequence (O60285 1-661): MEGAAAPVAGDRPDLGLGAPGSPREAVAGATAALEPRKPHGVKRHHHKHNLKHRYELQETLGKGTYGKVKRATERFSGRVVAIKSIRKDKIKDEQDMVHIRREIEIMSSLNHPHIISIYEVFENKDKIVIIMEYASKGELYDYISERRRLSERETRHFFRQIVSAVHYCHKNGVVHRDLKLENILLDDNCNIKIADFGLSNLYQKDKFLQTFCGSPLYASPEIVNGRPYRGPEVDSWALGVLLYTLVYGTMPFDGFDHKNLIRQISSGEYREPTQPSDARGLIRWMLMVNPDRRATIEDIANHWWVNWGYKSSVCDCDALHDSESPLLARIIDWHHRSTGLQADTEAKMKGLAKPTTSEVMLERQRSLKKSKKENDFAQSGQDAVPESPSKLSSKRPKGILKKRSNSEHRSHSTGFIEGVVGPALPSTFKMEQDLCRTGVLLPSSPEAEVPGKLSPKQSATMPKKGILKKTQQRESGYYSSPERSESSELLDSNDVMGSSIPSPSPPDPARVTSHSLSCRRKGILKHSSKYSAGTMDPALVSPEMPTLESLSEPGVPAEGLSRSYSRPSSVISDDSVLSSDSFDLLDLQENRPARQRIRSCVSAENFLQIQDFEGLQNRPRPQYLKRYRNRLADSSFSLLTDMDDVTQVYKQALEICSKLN
How it was run: as §1

T1 sequence (Q5S007 970-2527 limits assumed): as the sequence (Q5S007 970-2527 G2019S limits assumed) above, with S1050G counted along it

CCn1ccnc1-c1ccc(Nc2cn(-c3c(Cl)cccc3Cl)nc2C(N)=O)cc1 [compound 229, 1-(2,6-dichlorophenyl)-4-((4-(1-ethyl-1H-imidazol-2-yl)phenyl)amino)-1H-pyrazole-3-carboxamide]
IC50 [1]: 100 to 1000 nM
IC50 [2]: 10 to 100 nM
IC50 [3]: 100 to 1000 nM
IC50 [4]: < 10 nM
IC50 [5]: 100 to 1000 nM
IC50 [6]: 100 to 1000 nM

NC(=O)c1nn(-c2c(Cl)cccc2Cl)cc1Nc1ccc(-c2nncn2CC(F)F)cc1 [compound 212, 1-(2,6-dichlorophenyl)-4-((4-(4-(2,2-difluoroethyl)-4H-1,2,4-triazol-3-yl)phenyl)amino)-1H-pyrazole-3-carboxamide]
IC50 [1]: 100 to 1000 nM
IC50 [2]: < 10 nM
IC50 [3]: 100 to 1000 nM
IC50 [4]: 10 to 100 nM
IC50 [5]: 100 to 1000 nM
IC50 [6]: 100 to 1000 nM

NC(=O)c1nn(-c2c(Cl)ccc(F)c2Cl)cc1Nc1ccc(C(=O)N2CCOCC2)cc1 [compound 416, 1-(2,6-dichloro-3-fluorophenyl)-4-((4-(morpholine-4-carbonyl)phenyl)amino)-1H-pyrazole-3-carboxamide]
IC50 [1]: 100 to 1000 nM
IC50 [2]: < 10 nM
IC50 [3]: 100 to 1000 nM
IC50 [4]: 10 to 100 nM
IC50 [5]: 100 to 1000 nM
IC50 [6]: 100 to 1000 nM

CC(C)n1cnnc1-c1ccc(Nc2cn(-c3c(Cl)cccc3Cl)nc2C(N)=O)cc1 [compound 205, 1-(2,6-dichlorophenyl)-4-((4-(4-isopropyl-4H-1,2,4-triazol-3-yl)phenyl)amino)-1H-pyrazole-3-carboxamide]
IC50 [1]: 100 to 1000 nM
IC50 [2]: 10 to 100 nM
IC50 [3]: 100 to 1000 nM
IC50 [4]: 10 to 100 nM
IC50 [5]: 100 to 1000 nM
IC50 [6]: 100 to 1000 nM

NC(=O)c1nn(-c2c(F)cccc2F)cc1Nc1ccc(C(=O)NC2CCOCC2)cc1 [compound 13, 1-(2,6-difluorophenyl)-4-((4-((tetrahydro-2H-pyran-4-yl)carbamoyl)phenyl)amino)-1H-pyrazole-3-carboxamide]
IC50 [1]: 100 to 1000 nM
IC50 [2]: 10 to 100 nM
IC50 [3]: 100 to 1000 nM
IC50 [4]: 100 to 1000 nM
IC50 [5]: 100 to 1000 nM
IC50 [6]: 10 to 100 nM

NC(=O)c1nn(-c2c(F)cccc2Cl)cc1Nc1ccc(C(=O)N2CCCC2)cc1 [compound 227, 1-(2-chloro-6-fluorophenyl)-4-((4-(pyrrolidine-1-carbonyl)phenyl)amino)-1H-pyrazole-3-carboxamide]
IC50 [1]: 100 to 1000 nM
IC50 [2]: < 10 nM
IC50 [3]: 100 to 1000 nM
IC50 [4]: 10 to 100 nM
IC50 [5]: 100 to 1000 nM
IC50 [6]: 10 to 100 nM

CCn1cnnc1-c1ccc(Nc2cn(-c3c(Cl)cccc3Cl)nc2C(N)=O)cc1 [compound 87, 1-(2,6-dichlorophenyl)-4-((4-(4-ethyl-4H-1,2,4-triazol-3-yl)phenyl)amino)-1H-pyrazole-3-carboxamide]
IC50 [1]: 100 to 1000 nM
IC50 [2]: < 10 nM
IC50 [3]: 100 to 1000 nM
IC50 [4]: 10 to 100 nM
IC50 [5]: 100 to 1000 nM
IC50 [6]: 100 to 1000 nM

NC(=O)c1nn(-c2c(Cl)cccc2Cl)cc1Nc1ccc(-c2nncn2C2CC2)cc1 [compound 206, 4-((4-(4-cyclopropyl-4H-1,2,4-triazol-3-yl)phenyl)amino)-1-(2,6-dichlorophenyl)-1H-pyrazole-3-carboxamide]
IC50 [1]: 100 to 1000 nM
IC50 [2]: 10 to 100 nM
IC50 [3]: 100 to 1000 nM
IC50 [4]: 10 to 100 nM
IC50 [5]: 100 to 1000 nM
IC50 [6]: 100 to 1000 nM

NC(=O)c1nn(-c2c(Cl)cccc2Cl)cc1Nc1ccc(-c2nncn2C2CCCC2)cc1 [compound 202, 4-((4-(4-cyclopentyl-4H-1,2,4-triazol-3-yl)phenyl)amino)-1-(2,6-dichlorophenyl)-1H-pyrazole-3-carboxamide]
IC50 [1]: 100 to 1000 nM
IC50 [2]: 10 to 100 nM
IC50 [3]: 100 to 1000 nM
IC50 [4]: 100 to 1000 nM
IC50 [5]: 100 to 1000 nM
IC50 [6]: 100 to 1000 nM
